Experimental findings from patent US11407715B2, “Substituted indoline derivatives as dengue viral replication inhibitors” (JANSSEN PHARMACEUTICALS, INC., priority 2017, dated 2022) are described below.

pEC50: −log10 of the molar value. A value given as a limit tells only on which side of the number the result lay.

Data set [1] deals with DENV-2 16681 strain. Description: microbe, parasite or virus in culture. The class given is cell-based, Dengue virus. The following applies: for pEC50: DENV-2 16681 eGFP, Vero cells, MOI 0.5, 3 days; for SI: SI=CC50/EC50, DENV-2 antiviral assay.
Data set [2] has as its system DENV-1 strain TC974#666. Kind of data set: Tetravalent RT-qPCR assay, serotype 1. The class given is cell-based, Dengue virus. The note with it: RT-qPCR serotype 1 TC974#666, Vero cells. As for the experimental part: (§1) The antiviral activity of the compounds of the invention was tested against DENV-1 strain TC974#666 (NCPV), DENV-2 strain 16681, DENV-3 strain H87 (NCPV) and DENV-4 strain H241 (NCPV) in a RT-qPCR assay. Therefore, Vero cells were infected with either DENV-1, or -2, or -3, or -4 in the presence or absence of test compounds. At day 3 post-infection, the cells were lysed and cell lysates were used to prepare cDNA of both a viral target (the 3′UTR of DENV; Table 2) and a cellular reference gene (β-actin, Table 2). Subsequently, a duplex real time PCR was performed on a Lightcycler480 instrument. The generated Cp value is inversely proportional to the amount of RNA expression of these targets. Inhibition of DENV replication by a test compound results in a shift of Cp's for the 3′UTR gene. On the other hand, if a test compound is toxic to the cells, a similar effect on β-actin expression will be observed. The comparative ΔΔCp method is used to calculate ECs50, which is based on the relative gene expression of the target gene (3′UTR) normalized with the cellular housekeeping gene (β-actin). In addition, CC50 values are determined based on the Cp values acquired for the housekeeping gene β-actin.
(§2) The culture medium consisted of minimal essential medium supplemented with 2% of heat-inactivated fetal calf serum, 0.04% gentamycin (50 mg/mL) and 2 mM of L-glutamine. Vero cells, obtained from ECACC, were suspended in culture medium and 75 μL/well was added in 96-well plates (10000 cells/well), which already contain the antiviral compounds. […] In addition, each plate contains wells which are assigned as virus controls (containing cells and virus in the absence of compound) and cell controls (containing cells in the absence of virus and compound). Once the cells were added in the plates, the plates were incubated in a fully humidified incubator (37° C., 5% CO2) until the next day. Dengue viruses serotype-1, 2, 3 and 4 were diluted in order to obtain a Cp of ˜22-24 in the assay. Therefore, 25 μL of virus suspension was added to all the wells containing test compound and to the wells assigned as virus control. In parallel, 25 μL of culture medium was added to the cell controls. Next, the plates were incubated for 3 days in a fully humidified incubator (37° C., 5% CO2). After 3 days, the supernatant was removed from the wells and the cells were washed twice with ice-cold PBS (˜100 μL). The cell pellets within the 96-well plates were stored at −80° C. for at least 1 day. Next, RNA was extracted using the Cells-to-CT™ lysis kit, according to the manufacturer's guideline (Life Technologies). The cell lysates can be stored at −80C or immediately used in the reverse transcription step.
(§3) In preparation of the reverse transcription step, mix A (table 3A) was prepared and 7.57 μL/well was dispensed in a 96-well plate. After addition of 5 μL of the cell lysates, a five minute denaturation step at 75° C. was performed (table 3B). Afterwards, 7.43 μL of mix B was added (table 3C) and the reverse transcription step was initiated (table 3D) to generate cDNA.
(§4) Finally, a RT-qPCR mix was prepared, mix C (table 4A), and 22.02 μL/well was dispensed in 96-well LightCycler qPCR plates to which 3 μL of cDNA was added and the qPCR was performed according to the conditions in table 4B on a LightCycler 480.
(§5) Using the LightCycler software and an in-house LIMS system, dose response curves for each compound were calculated and the half maximal effective concentration (EC50) and the half maximal cytotoxic concentration (CC50) were determined (Tables 5-8).
On the technique in general: Quantitative PCR measures a nucleic acid by following its amplification.

Data set [3] concerns DENV-2 strain 16681. Description: Tetravalent RT-qPCR assay, serotype 2. The class given is cell-based, Dengue virus. The following applies: RT-qPCR serotype 2 16681, Vero cells. The protocol:
as §1, §2, §3, §4, §5

In data set [4] the test system is DENV-3 strain H87. Kind of data set: Tetravalent RT-qPCR assay, serotype 3. The following applies: RT-qPCR serotype 3 H87, Vero cells. The class given is cell-based, Dengue virus. As for the experimental part: as §1, §2, §3, §4, §5
In data set [5] the test system is DENV-4 strain H241. Description: Tetravalent RT-qPCR assay, serotype 4. The class given is cell-based, Dengue virus. The following applies: RT-qPCR serotype 4 H241, Vero cells. As for the experimental part: as §1, §2, §3, §4, §5
The test system of data set [6] is Vero cells. The note with it: African green monkey.

As a reminder, the pEC50 is −log10 of the EC50, conventionally taken in molar units. Usually CC50 stands for the concentration that lowers cell viability or growth by half.

On to `COc1cc(NC(C(=O)N2CCc3cc(OC)c(Cl)cc32)c2ccc(Cl)cc2)cc(OC2CC(C(=O)O)C2)c1` (single isomer, unassigned) [Compound 32B], for which the pEC50 in data set [1] is 10.09; in data set [2] (Dengue virus, DENV1, Vero), 9.96; in data set [3] (Dengue virus, DENV2, Vero), 10.48; in data set [4] (Dengue virus, DENV3, Vero) it was 9.24; in data set [5] (Dengue virus, DENV4, Vero), 8.00. In addition, the SI in data set [1] was more than 230623. Also, the CC50 in data set [6] is 14000 nM.

For the compound `COc1cc(NC2CC(C(=O)O)C2)cc(NC(C(=O)N2CCc3ccc(OC(F)(F)F)cc32)c2ccc(Cl)cc2)c1` (single isomer, unassigned) [Compound 33C], the pEC50 in data set [1] was 8.49; in data set [2], 9.01; in data set [3] (Dengue virus, DENV2, Vero), 9.00; in data set [4], 7.96; in data set [5], 6.47. In data set [1], this compound had an SI of 5930. For the same compound, in data set [6], the CC50 was 19000 nM.

Turning to `COc1cc(NC2CC(C(=O)O)C2)cc(NC(C(=O)N2CCc3ccc(OC(F)(F)F)cc32)c2ccc(Cl)cc2)c1` (single isomer, unassigned) [Compound 33D], the negative-log EC50 (pEC50) in data set [1] is 9.28; in data set [2], 9.32; in data set [3], 9.18; in data set [4], 8.64; in data set [5] it was 7.66. In data set [1], this compound gave an SI of 39000. In data set [6], this compound came in with a CC50 of 18000 nM.

As to `COc1cc(NC(C(=O)N2CCc3ccc(OC(F)(F)F)cc32)c2ccc(Cl)cc2)cc(OCC2CC2C(=O)O)c1` (centres unmarked) [Compound 6AB], the pEC50 in data set [1] was 10.80; in data set [2], 10.66; in data set [3] it was 10.77; in data set [4] it was 9.89; in data set [5], 8.54. The SI in data set [1] is on record as more than 199223. Also, in data set [6], it took 12000 nM to reach half-maximal cytotoxicity (CC50).

`COc1cc(NC(C(=O)N2CCc3ccc(OC(F)(F)F)cc32)c2ccc(Cl)cc2)cc(OCC2CC2C(=O)O)c1` (centres unmarked) [Compound 6BB]: the negative-log EC50 (pEC50) in data set [1] was 9.74; in data set [2] it was 9.89; in data set [3], 9.92; in data set [4], 8.80; in data set [5] it was 7.70. This compound also yielded an SI in data set [1] of 83800. In data set [6], this compound gave a CC50 of 12000 nM.

Take `COc1cc(NC(C(=O)N2CCc3ccc(OC(F)(F)F)cc32)c2ccc(Cl)cc2)cc(OC2CC(C(=O)O)C2)c1` (centres unmarked) [Compound 7B]: the pEC50 in data set [1] was 9.92; in data set [2], 9.82; in data set [3] it was 9.92; in data set [4], 8.74; in data set [5], 7.89. In addition, the SI in data set [1] was found to be 121027. In addition, the midpoint of cytotoxicity in data set [6], the CC50, lay at 13000 nM.

For the compound `COc1cc(NC(C(=O)N2CCc3ccc(OC(F)(F)F)cc32)c2ccc(Cl)cc2)cc(OC2CC(C(=O)O)C2)c1` (centres unmarked) [Compound 8B], the pEC50 was 10.64 in data set [1]; 10.49 in data set [2]; 10.60 in data set [3]; 9.80 in data set [4]; 8.89 in data set [5]. The SI in data set [1] is given as more than 102836. This compound also showed a CC50 in data set [6] of 14000 nM.

Regarding `COc1cc(NC(C(=O)N2CCc3ccc(OC(F)(F)F)cc32)c2ccc(Cl)cc2)cc(OCC2CC(C(=O)O)C2)c1` (centres unmarked) [Compound 10B], the pEC50 in data set [1] is 9.96; in data set [2] (Dengue virus, DENV1, Vero) it was 9.57; in data set [3] (Dengue virus, DENV2, Vero), 9.96; in data set [4] (Dengue virus, DENV3, Vero) it was 8.54; in data set [5] (Dengue virus, DENV4, Vero), 7.66. The SI in data set [1] came to 109987. The compound further gave a CC50 in data set [6] of 11000 nM.

Turning to `COc1cc(NC(C(=O)N2CCc3ccc(OC(F)(F)F)cc32)c2ccc(Cl)cc2)cc(OCC2CC(C(=O)O)C2)c1` (centres unmarked) [Compound 11B], the pEC50 in data set [1] is 9.96; in data set [2], 9.70; in data set [3], 10.00; in data set [4], 8.74; in data set [5], 7.77. In data set [1], this compound showed an SI of 118692. The same compound registered a CC50 in data set [6] of 11000 nM.

On to `COc1cc(NC(C(=O)N2CCc3ccc(OC(F)(F)F)cc32)c2ccc(Cl)cc2OC)cc(OCC2CC2C(=O)O)c1` (centres unmarked) [Compound 19AB], for which the pEC50 is 10.92 in data set [1]; 10.68 in data set [2]; 10.85 in data set [3]; 9.85 in data set [4]; 9.16 in data set [5]. Besides, in data set [1], the SI is more than 390600. This compound registered a CC50 in data set [6] of 12000 nM.

`COc1cc(NC(C(=O)N2CCc3ccc(OC(F)(F)F)cc32)c2ccc(Cl)cc2OC)cc(OCC2CC2C(=O)O)c1` (centres unmarked) [Compound 19BB]: the pEC50 in data set [1] was 10.42; in data set [2], 10.04; in data set [3], 10.11; in data set [4], 9.07; in data set [5], 8.17. Further, the SI in data set [1] was more than 148612. This compound also came in with a CC50 in data set [6] of 8800 nM.

In the case of `COc1cc(NC(C(=O)N2CCc3cc(OC)c(C(F)(F)F)cc32)c2ccc(Cl)cc2)cc(OCC2CC2C(=O)O)c1` (centres unmarked) [Compound 22AB], the pEC50 is 10.47 in data set [1]; 10.04 in data set [2]; 10.54 in data set [3]; 9.31 in data set [4]; 8.48 in data set [5]. This compound displayed an SI in data set [1] of more than 196427. Further, the CC50 in data set [6] worked out at 12000 nM.

For `COc1cc(NC(C(=O)N2CCc3cc(OC)c(C(F)(F)F)cc32)c2ccc(Cl)cc2)cc(OCC2CC2C(=O)O)c1` (centres unmarked) [Compound 22BB], the pEC50 in data set [1] is 9.34; in data set [2], 8.82; in data set [3], 9.48; in data set [4], 8.05; in data set [5] it was 7.15. This compound also returned an SI in data set [1] of 27600. The compound further showed a CC50 in data set [6] of 14000 nM.

For `COc1cc(NC(C(=O)N2CCc3cc(OC)c(C(F)(F)F)cc32)c2ccc(Cl)cc2)cc(OC2CC(C(=O)O)C2)c1` (centres unmarked) [Compound 23B], the pEC50 is 10.21 in data set [1]; 10.04 in data set [2] (Dengue virus, DENV1, Vero); 10.47 in data set [3] (Dengue virus, DENV2, Vero); 9.48 in data set [4] (Dengue virus, DENV3, Vero); 8.57 in data set [5] (Dengue virus, DENV4, Vero). The SI in data set [1] is listed as more than 88755. For the same compound, the midpoint of cytotoxicity in data set [6], the CC50, lay at 12000 nM.

For `COc1cc(NC(C(=O)N2CCc3cc(OC)c(C(F)(F)F)cc32)c2ccc(Cl)cc2)cc(OCC2CC(C(=O)O)C2)c1` (centres unmarked) [Compound 24B], the pEC50 in data set [1] is 9.47; in data set [2] (Dengue virus, DENV1, Vero), 8.66; in data set [3] (Dengue virus, DENV2, Vero) it was 9.59; in data set [4], 7.85; in data set [5] (Dengue virus, DENV4, Vero), 7.18. In data set [1], the SI came to 43100. The CC50 in data set [6] was found to be 12000 nM.

As for `COc1cc(NC(C(=O)N2CCc3cc(OC)c(C(F)(F)F)cc32)c2ccc(Cl)cc2)cc(OCC2CC(C(=O)O)C2)c1` (centres unmarked) [Compound 25B], the pEC50 in data set [1] was 9.55; in data set [2] it was 8.89; in data set [3], 9.57; in data set [4] it was 8.20; in data set [5] it was 7.26. For the same compound, the SI in data set [1] stood at 52900. The CC50 in data set [6] came to 13000 nM.

Take `COc1cc(NC(C(=O)N2CCc3ccc(OC(F)(F)F)cc32)c2ccc(Cl)cc2)cc(OCC2(F)CC2C(=O)O)c1` (centres unmarked) [Compound 28AB]: the pEC50 is 9.17 in data set [1]; 9.39 in data set [2]; 9.51 in data set [3]; 8.28 in data set [4]; 7.16 in data set [5]. This compound yielded an SI in data set [1] of 19000. In data set [6], it took 13000 nM to reach half-maximal cytotoxicity (CC50).
